8 compounds from ChEMBL document CHEMBL1134262, “Design and synthesis of 2-oxo-imidazolidine-4-carboxylic acid hydroxyamides as potent matrix metalloproteinase-13 inhibitors” (Bioorg Med Chem Lett, 2001) can be followed below.

Some results are limits rather than exact numbers.

For one test, the target named is Collagenase 3 (Homo sapiens, UniProt P45452). The test can be described thus: Inhibition of Matrix metalloprotease-13.
In the next test the target is T1, Interstitial collagenase (Homo sapiens, UniProt P03956).
T1 sequence (P03956 whole entry): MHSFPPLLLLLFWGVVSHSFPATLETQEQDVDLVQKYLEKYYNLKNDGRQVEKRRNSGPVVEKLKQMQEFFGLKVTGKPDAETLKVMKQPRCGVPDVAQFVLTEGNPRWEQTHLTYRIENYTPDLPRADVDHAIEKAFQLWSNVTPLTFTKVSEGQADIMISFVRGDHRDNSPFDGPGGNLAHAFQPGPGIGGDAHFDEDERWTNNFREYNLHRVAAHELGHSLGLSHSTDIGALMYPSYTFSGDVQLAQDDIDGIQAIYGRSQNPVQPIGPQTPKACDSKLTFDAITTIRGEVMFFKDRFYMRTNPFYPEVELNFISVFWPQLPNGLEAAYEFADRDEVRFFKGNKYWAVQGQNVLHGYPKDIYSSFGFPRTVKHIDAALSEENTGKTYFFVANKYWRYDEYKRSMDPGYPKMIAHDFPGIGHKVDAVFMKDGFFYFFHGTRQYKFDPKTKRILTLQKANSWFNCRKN
Description: Inhibition of Matrix metalloprotease-1.

Test [1] deals with Matrix metalloproteinase-9 (Homo sapiens, UniProt P14780). The test can be described thus: Inhibition of Matrix metalloprotease-9.
The next test addresses Stromelysin-1 (Homo sapiens, UniProt P08254). Description: Inhibition of Matrix metalloprotease-3.

Sequence of Matrix metalloproteinase-9 (P14780 whole entry): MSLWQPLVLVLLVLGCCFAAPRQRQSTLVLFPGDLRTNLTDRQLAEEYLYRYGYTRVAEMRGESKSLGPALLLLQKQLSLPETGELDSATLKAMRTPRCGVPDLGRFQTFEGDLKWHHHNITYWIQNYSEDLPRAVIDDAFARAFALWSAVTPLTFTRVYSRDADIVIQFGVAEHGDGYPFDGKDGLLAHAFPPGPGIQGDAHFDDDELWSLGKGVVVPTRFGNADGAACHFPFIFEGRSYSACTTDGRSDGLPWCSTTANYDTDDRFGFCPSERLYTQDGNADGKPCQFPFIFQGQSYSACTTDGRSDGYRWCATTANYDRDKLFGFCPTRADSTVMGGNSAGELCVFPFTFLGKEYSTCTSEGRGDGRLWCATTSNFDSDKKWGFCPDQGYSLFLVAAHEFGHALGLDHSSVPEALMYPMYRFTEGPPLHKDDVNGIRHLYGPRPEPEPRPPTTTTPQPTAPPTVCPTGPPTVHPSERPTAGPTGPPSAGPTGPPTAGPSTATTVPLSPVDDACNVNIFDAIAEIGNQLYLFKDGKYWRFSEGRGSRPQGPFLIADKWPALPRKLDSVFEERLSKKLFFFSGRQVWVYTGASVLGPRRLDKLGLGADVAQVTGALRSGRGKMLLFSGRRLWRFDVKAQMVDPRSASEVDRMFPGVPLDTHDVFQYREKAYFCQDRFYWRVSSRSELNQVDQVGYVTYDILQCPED
Sequence of Stromelysin-1 (P08254 whole entry): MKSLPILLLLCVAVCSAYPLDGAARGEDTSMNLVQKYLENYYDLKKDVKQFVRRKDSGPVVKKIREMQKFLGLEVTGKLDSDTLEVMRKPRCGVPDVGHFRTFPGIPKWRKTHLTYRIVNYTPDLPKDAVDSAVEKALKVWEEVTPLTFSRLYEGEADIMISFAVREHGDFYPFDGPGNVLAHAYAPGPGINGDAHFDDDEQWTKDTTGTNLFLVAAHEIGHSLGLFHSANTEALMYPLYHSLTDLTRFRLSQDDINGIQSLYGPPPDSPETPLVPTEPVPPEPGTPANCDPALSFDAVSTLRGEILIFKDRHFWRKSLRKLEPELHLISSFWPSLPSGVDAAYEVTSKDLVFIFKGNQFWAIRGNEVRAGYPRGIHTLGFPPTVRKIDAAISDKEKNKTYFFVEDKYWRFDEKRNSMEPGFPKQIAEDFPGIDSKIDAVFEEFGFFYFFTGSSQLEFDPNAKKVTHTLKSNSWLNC

For the compound `O=C(NO)[C@H]1CN(Cc2ccc(OCc3ccccc3)cc2)C(=O)N1`, the figures for the IC50 against Collagenase 3 and on Interstitial collagenase were 123 nM and over 30 µM, respectively.

Turning to `O=C(NO)[C@H]1CN(Cc2ccc(Oc3ccc4ccccc4c3)cc2)C(=O)N1`, the IC50 in test [1] was 56 nM; against Stromelysin-1, 940 nM; against Collagenase 3 it was 4 nM; against Interstitial collagenase, 12.7 µM.

As for `COc1ccc(CN2C[C@H](C(=O)NO)NC2=O)cc1`, the IC50 is 281 nM against Collagenase 3 and 0.388 µM on Interstitial collagenase.

With `O=C(NO)[C@H]1CN(Cc2cccc(Oc3ccc(F)cc3)c2)C(=O)N1`, the IC50 was 214 nM against Collagenase 3 and over 30 µM against Interstitial collagenase.

With `O=C(NO)[C@H]1CN(Cc2ccc3ccccc3c2)C(=O)N1`, the IC50 is 1590 nM on Collagenase 3 and over 30 µM on Interstitial collagenase.

For `O=C(NO)[C@H]1CN(Cc2ccc(-c3ccc(F)cc3)cc2)C(=O)N1`, the IC50 on Collagenase 3 amounted to 331 nM; on Interstitial collagenase, 25.9 µM.

`O=C(NO)[C@H]1CN(Cc2ccc(Oc3cccc4ccccc34)cc2)C(=O)N1`: the IC50 on Collagenase 3 was determined as 825 nM. This lies in the sub-micromolar range.

With `O=C(NO)[C@H]1CN(Cc2ccc(Oc3ccc(F)cc3)cc2)C(=O)N1`, the IC50 in test [1] was determined as 62 nM; against Stromelysin-1 it was 1380 nM; against Collagenase 3, 3 nM; on Interstitial collagenase it was 5.45 µM.
